Values of other authors as cited in patent EP2042172A1, “Use of tocopherol derivatives as inhibitors of the notch signalling pathway” (Inserm, priority 2007, dated 2009).

Tested on: axonal growth
Conditions: even in the presence of inhibitory signals (Hanbali et al., 2004); cited from earlier work

## CC1=C(CCCCCCCCCCCCCCCO)C(C)(C)CCC1=O [tCFA15]
  axonal growth in vitro: promote axonal growth in vitro
